{"source": "patent US11242337B2", "about": "“Compounds useful for treating gastrointestinal tract disorders” (Ardelyx, Inc., priority 2017, dated 2022)", "test_system": "absorption of sodium from the intestinal lumen", "test": "Inhibition of intestinal sodium absorption in mice", "format": "in vivo", "settings": "CD-1 mice, 15 mg/kg oral gavage twice daily; for Fecal fluid content (Δ from vehicle): day 3, change from vehicle group mean; for response vs control in vivo at 15 mg/kg: Mus musculus, 72 h", "protocol": "Urinary and fecal sodium excretions were measured to assess the ability of selected example compounds to inhibit the absorption of sodium from the intestinal lumen. In addition, an assessment of the absence or presence of diarrhea in response to compound treatment was made. Approximately eight-week old, male, CD-1 mice were purchased from Envigo (Livermore, Calif.), were housed 6 per cage and acclimated for at least 48 hours before study initiation. Animals were fed Harlan Teklad Global TD.160470 rodent chow (Madison, Wis.), standard laboratory rodent chow Harlan Teklad Global 2018 with the addition of 0.4% inorganic phosphorous. […] To initiate the study, mice were weighed and then individually placed in metabolic cages. Following a 3-day acclimation period to the metabolic cage, a 24-hr baseline collection of urine and feces was performed. […] Each day, measurements of body weight. 24-hour food intake, water intake, urine volume and wet fecal weight were recorded, along with any observation of diarrhea. Fecal samples were dried using a lyophilizer for at least 3 days, following which dry weight was recorded and fecal fluid content was calculated based on the difference between the wet and dry stool weights. Fecal fluid content on day 3 of compound treatment was calculated as a change from the vehicle group mean. For urine samples, the volumes were determined gravimetrically. Feces and urine were analyzed for sodium content by microwave plasma-atomic emission spectroscopy or ion chromatography, respectively. Urine samples were analyzed on an ion chromatography system (Thermo Fisher ICS-3000 or ICS-5000+) coupled with conductivity detectors. Chromatographic separation of cations was performed using an IonPac CS12A (Thermo Fisher) 2×250 mm analytical column with an isocratic elution using […] methanesulfonic acid. Concentrations were interpolated from a a standard curve (prepared in 10 mM HCl) for sodium ion based on retention time and peak area. Fecal sample analysis by Microwave Plasma Atomic Emission Spectrometry (MP-AES). Dry fecal samples were ground into a fine powder on a homogenizer and the ground samples (400-600 mg aliquots weighed) were digested with nitric acid by microwave method (Mars 6). These digested samples were diluted with 1% Nitric acid and analyzed on Agilent 4100 MP-AES. Concentrations were calculated relative to a standard curve (prepared in 1% Nitric acid) for sodium based on the signal intensity. Sodium was detected at a wavelength of 588.995 nm. Twenty-four-hour urinary sodium excretion (ma/24-hours) was calculated by multiplying urinary sodium concentration by 24-hour urine volume. Twenty-four-hour fecal sodium excretion (mg/24-hours) was calculated by multiplying fecal sodium concentration by 24-hour dry fecal weight. The urinary and fecal sodium excretion on day 3 of compound treatment were normalized to dietary sodium intake and expressed as a percentage of the vehicle mean.", "key": {"[1]": {"settings": "day 3, normalized to dietary sodium intake"}, "[2]": {"settings": "day 3, normalized to dietary sodium intake, read-out: Fecal Na Excretion (% of vehicle)"}, "[3]": {"settings": "day 3, normalized to dietary sodium intake, read-out: Urinary Na Excretion (% of vehicle)"}}, "note": "Like-named read-outs stand apart in the source and are kept apart here.", "data": [{"compound": "3-[2-(2-[2-[(4-[[(1S,2S)-4,6-Dichloro-2-[(3R)-3-[methyl(propan-2-yl)amino]piperidin-1-yl]-2,3-dihydro-1H-inden-1-yl]oxy]benzene) sulfonamido]ethoxy]ethoxy)ethyl]-1-[4-([[2-(2-[2-[(4-[[(1S,2S)-4,6-dichloro-2-[(3R)-3-[methyl(propan-2-yl)amino]piperidin-1-yl]-2,3-dihydro-1H-inden-1-yl]oxy]benzene)sulfonamido]ethoxy]ethoxy)ethyl]carbamoyl]amino)butyl]urea; bis(trifluoroacetic acid) [Example 78]", "values": [{"measurement": "Fecal fluid content (Δ from vehicle)", "result": "A (<5)"}, {"measurement": "Fecal Na Excretion (% of vehicle)", "setting": "[1]", "result": "A (<150%)"}, {"measurement": "Urinary Na Excretion (% of vehicle)", "setting": "[1]", "result": "A (>70%)"}]}, {"compound": "CN(C)[C@H]1Cc2c(Cl)cc(Cl)cc2[C@@H]1Oc1ccc(S(=O)(=O)NCCOCCOCCNC(=O)NCCCCNC(=O)NCCOCCOCCNS(=O)(=O)c2ccc(O[C@H]3c4cc(Cl)cc(Cl)c4C[C@@H]3N(C)C)c(F)c2)cc1F", "note": "[Example 23, 3-[2-(2-[2-[(4-[[(1S,2S)-4,6-Dichloro-2-(dimethylamino)-2,3-dihydro-1H-inden-1-yl]oxy]-3-fluorobenzene)sulfonamido]ethoxy]ethoxy)ethyl]-1-[4-([[2-(2-[2-[(4-[[(1S,2S)-4,6-dichloro-2-(dimethylamino)-2,3-dihydro-1H-inden-1-yl]oxy]-3-fluorobenzene)sulfonamido]ethoxy]ethoxy)ethyl]carbamoyl]amino)butyl]urea; bis(trifluoroacetic acid)]", "values": [{"measurement": "Fecal fluid content (Δ from vehicle)", "result": "B (5-10)"}, {"measurement": "response vs control in vivo at 15 mg/kg", "setting": "[2]", "result": "150 to 200", "unit": "%"}, {"measurement": "response vs control in vivo at 15 mg/kg", "setting": "[3]", "result": "50 to 70", "unit": "%"}]}, {"compound": "Cc1cc(S(=O)(=O)NCCOCCOCCNC(=O)NCCCCNC(=O)NCCOCCOCCNS(=O)(=O)c2ccc(O[C@H]3c4cc(Cl)cc(Cl)c4C[C@@H]3N3CCC[C@@H](N(C)C)C3)c(C)c2)ccc1O[C@H]1c2cc(Cl)cc(Cl)c2C[C@@H]1N1CCC[C@@H](N(C)C)C1", "note": "[Example 26, 3-[2-(2-[2-[(4-[[(1S,2S)-4,6-Dichloro-2-[(3R)-3-(dimethylamino)piperidin-1-yl]-2,3-dihydro-1H-inden-1-yl]oxy]-3-methylbenzene)sulfonamido]ethoxy]ethoxy)ethyl]-1-[4-([[2-(2-[2-[4-[[(1S,2S)-4,6-dichloro-2-[(3R)-3-(dimethylamino)piperidin-1-yl]-2,3-dihydro-1H-inden-1-yl]oxy]-3-methylbenzenesulfonamido]ethoxy]ethoxy)ethyl]carbamoyl]amino)butyl]urea; bis(trifluoroacetic acid)]", "values": [{"measurement": "Fecal fluid content (Δ from vehicle)", "result": "B (5-10)"}, {"measurement": "response vs control in vivo at 15 mg/kg", "setting": "[2]", "result": "150 to 200", "unit": "%"}, {"measurement": "response vs control in vivo at 15 mg/kg", "setting": "[3]", "result": "50 to 70", "unit": "%"}]}, {"compound": "Cc1cc(Cl)cc2c1C[C@H](N1CCC[C@@H](N(C)C)C1)[C@H]2Oc1ccc(S(=O)(=O)NCCOCCOCCNC(=O)NCCCCNC(=O)NCCOCCOCCNS(=O)(=O)c2ccc(O[C@H]3c4cc(Cl)cc(C)c4C[C@@H]3N3CCC[C@@H](N(C)C)C3)cc2)cc1", "note": "[Example 28, 3-[2-(2-[2-[(4-[[(1S,2S)-6-Chloro-2-[(3R)-3-(dimethylamino)piperidin-1-yl]-4-methyl-2,3-dihydro-1H-inden-1-yl]oxy]benzene)sulfonamido]ethoxy]ethoxy)ethyl]-1-[4-([[2-(2-[2-[(4-[[(1S,2S)-6-chloro-2-[(3R)-3-(dimethylamino)piperidin-1-yl]-4-methyl-2,3-dihydro-1H-inden-1-yl]oxy]benzene)sulfonamido]ethoxy]ethoxy)ethyl]carbamoyl]amino)butyl]urea; bis(trifluoroacetic acid)]", "values": [{"measurement": "Fecal fluid content (Δ from vehicle)", "result": "B (5-10)"}, {"measurement": "response vs control in vivo at 15 mg/kg", "setting": "[2]", "result": "150 to 200", "unit": "%"}, {"measurement": "response vs control in vivo at 15 mg/kg", "setting": "[3]", "result": "> 70", "unit": "%"}]}, {"compound": "Cc1cc(S(=O)(=O)NCCOCCOCCNC(=O)NCCCCNC(=O)NCCOCCOCCNS(=O)(=O)c2ccc(O[C@H]3c4cc(Cl)cc(C)c4C[C@@H]3N3CCC[C@@H](N(C)C)C3)c(C)c2)ccc1O[C@H]1c2cc(Cl)cc(C)c2C[C@@H]1N1CCC[C@@H](N(C)C)C1", "note": "[Example 29]", "values": [{"measurement": "Fecal fluid content (Δ from vehicle)", "result": "A (<5)"}, {"measurement": "response vs control in vivo at 15 mg/kg", "setting": "[2]", "result": "150 to 200", "unit": "%"}, {"measurement": "response vs control in vivo at 15 mg/kg", "setting": "[3]", "result": "50 to 70", "unit": "%"}]}, {"compound": "Cc1cc(Cl)cc2c1C[C@H](N1CCNCC1)[C@H]2Oc1ccc(S(=O)(=O)NCCOCCOCCNC(=O)NCCCCNC(=O)NCCOCCOCCNS(=O)(=O)c2ccc(O[C@H]3c4cc(Cl)cc(C)c4C[C@@H]3N3CCNCC3)cc2)cc1", "note": "[Example 34, 3-[2-(2-[2-[(4-[[(1S,2S)-6-Chloro-4-methyl-2-(piperazin-1-yl)-2,3-dihydro-1H-inden-1-yl]oxy]benzene)sulfonamido]ethoxy]ethoxy)ethyl]-1-[4-([[2-(2-[2-[(4-[[(1S,2S)-6-chloro-4-methyl-2-(piperazin-1-yl)-2,3-dihydro-1H-inden-1-yl]oxy]benzene)sulfonamido]ethoxy]ethyl)ethyl]carbamoyl]amino)butyl]urea; bis(trifluoroacetic acid)]", "values": [{"measurement": "Fecal fluid content (Δ from vehicle)", "result": "B (5-10)"}, {"measurement": "response vs control in vivo at 15 mg/kg", "setting": "[2]", "result": "150 to 200", "unit": "%"}, {"measurement": "response vs control in vivo at 15 mg/kg", "setting": "[3]", "result": "50 to 70", "unit": "%"}]}, {"compound": "Cc1cc(S(=O)(=O)NCCOCCOCCNC(=O)NCCCCNC(=O)NCCOCCOCCNS(=O)(=O)c2ccc(O[C@H]3c4cc(Cl)cc(C)c4C[C@@H]3N3CCNCC3)c(C)c2)ccc1O[C@H]1c2cc(Cl)cc(C)c2C[C@@H]1N1CCNCC1", "note": "[Example 35, 3-[2-(2-[2-[(4-[[(1S,2S)-6-Chloro-4-methyl-2-(piperazin-1-yl)-2,3-dihydro-1H-inden-1-yl]oxy]-3-methylbenzene)sulfonamido]ethoxy]ethoxy)ethyl]-1-[4-([[2-(2-[2-[(4-[[(1S,2S)-6-chloro-4-methyl-2-(piperazin-1-yl)-2,3-dihydro-1H-inden-1-yl]oxy]-3-methylbenzene)sulfonamido]ethoxy]ethoxy)ethyl]carbamoyl]amino)butyl]urea; bis(trifluoroacetic acid)]", "values": [{"measurement": "Fecal fluid content (Δ from vehicle)", "result": "A (<5)"}, {"measurement": "response vs control in vivo at 15 mg/kg", "setting": "[2]", "result": "150 to 200", "unit": "%"}, {"measurement": "response vs control in vivo at 15 mg/kg", "setting": "[3]", "result": "> 70", "unit": "%"}]}, {"compound": "Cc1cc(Cl)cc2c1C[C@H](N1CCNCC1)[C@H]2Oc1ccc(S(=O)(=O)NCCOCCOCCNC(=O)NCCCCNC(=O)NCCOCCOCCNS(=O)(=O)c2ccc(O[C@H]3c4cc(Cl)cc(C)c4C[C@@H]3N3CCNCC3)c(F)c2)cc1F", "note": "[Example 36, 3-[2-(2-[2-[(4-[[(1S,2S)-6-Chloro-4-methyl-2-(piperazin-1-yl)-2,3-dihydro-1H-inden-1-yl]oxy]-3-fluorobenzene)sulfonamido]ethoxy]ethoxy)ethyl]-1-[4-([[2-(2-[2-[(4-[[(1S,2S)-6-chloro-4-methyl-2-(piperazin-1-yl)-2,3-dihydro-1H-inden-1-yl]oxy]-3-fluorobenzene)sulfonamido]ethoxy]ethoxy)ethyl]carbamoyl]amino)butyl]urea; bis(trifluoroacetic acid)]", "values": [{"measurement": "Fecal fluid content (Δ from vehicle)", "result": "B (5-10)"}, {"measurement": "response vs control in vivo at 15 mg/kg", "setting": "[2]", "result": "150 to 200", "unit": "%"}, {"measurement": "response vs control in vivo at 15 mg/kg", "setting": "[3]", "result": "50 to 70", "unit": "%"}]}, {"compound": "Cc1cc(S(=O)(=O)N2CC[C@@H](COCCOCCNC(=O)NCCCCNC(=O)NCCOCCOC[C@@H]3CCN(S(=O)(=O)c4ccc(O[C@H]5c6cc(Cl)cc(Cl)c6C[C@@H]5N(C)C)c(C)c4)C3)C2)ccc1O[C@H]1c2cc(Cl)cc(Cl)c2C[C@@H]1N(C)C", "note": "[Example 45, 3-[2-(2-[[(3R)-1-[(4-[[(1S,2S)-4,6-Dichloro-2-(dimethylamino)-2,3-dihydro-1H-inden-1-yl]oxy]-3-methylbenzene)sulfonyl]pyrrolidin-3-yl]methoxy]ethoxy)ethyl]-1-[4-([[2-(2[[(3R)-1-[(4-[[(1S,2S)-4,6-dichloro-2-(dimethylamino)-2,3-dihydro-1H-inden-1-yl]oxy]-3-methylbenzene)sulfonyl]pyrrolidin-3-yl]methoxy]ethoxy)ethyl]carbamoyl]amino)butyl]urea; bis(trifluoroacetic acid)]", "values": [{"measurement": "Fecal fluid content (Δ from vehicle)", "result": "A (<5)"}, {"measurement": "response vs control in vivo at 15 mg/kg", "setting": "[2]", "result": "< 150", "unit": "%"}, {"measurement": "response vs control in vivo at 15 mg/kg", "setting": "[3]", "result": "> 70", "unit": "%"}]}]}
